Assay: Solubility comparison in common organic solvents
Assay type: physicochemical
Details: qualitative
From the text: In contrast, phenanthrenes which are structurally analogous but unsubstituted in the 9- and 10-position have distinctly poorer solubility in organic solvents. This leads to considerable problems in the purification, since substantially larger apparatus and distinctly larger amounts of solvent are required for this purpose.

For `Cc1ccc(-c2ccc3c(c2)c(C)c(C)c2cc(-c4ccc(C)c5ccccc45)ccc23)c2ccccc12` [Example P1], the “Solubility in common organic solvents” value was “moderate to good”.

— US8129037B2, “Phenanthrene derivative” (priority 2005, dated 2012)
